Assay results as given in US20070049625A1, “EP2 receptor agonists for treating glaucoma” (Allergan, Inc., priority 2005, published 2007).

Columns and labels:
Format in all cases: in vivo
[1] = system: Cynomolgus monkeys (Macaca fascicularis); assay: Intraocular pressure in laser-induced ocular hypertensive monkeys; details: single topical dose, laser-treated ocular hypertensive eye, IOP at 2, 4, 6 and 24 hours
Protocol: Cynomolgus monkeys (Macaca fascicularis) were used for the intraocular pressure studies. Each animal was unilaterally laser-treated by circumferential laser photocoagulation to induce ocular hypertension in one eye. Conscious female animals were trained sit in custom design chairs and to accept applanation pneumatonometry. The drug was administered topically to one eye using a dropper bottle to deliver approximately a 35 μl volume, the other eye received vehicle (1% polysorbate 80 in 5 mM Tris HCl) as a control. Proparacaine at 0.25% was used for corneal anesthesia during tonometry. Intraocular pressure was determined just before drug administration and at 2, 4, 6, and 24 hours.

[2] = system: Beagle dogs; assay: Intraocular pressure in conscious dogs by applanation pneumatonometry; details: topical to one eye, single daily dose over a 5 day period; IOP before and 2, 4, 6 hours after dosing; vehicle in other eye
Protocol: (§1) Measurement of intraocular pressure studies in dogs involved applanation pneumatonometry performed in Beagle dogs of both sexes. The animals remained conscious throughout the study and were gently restrained by hand. The drug was administered topically to one eye using a dropper bottle to deliver approximately a 35 μl volume, the other eye received vehicle (1% polysorbate 80 in 5 mM Tris HCI) as a control. Proparacaine at 0.25% was used for corneal anesthesia during tonometry. Intraocular pressure was determined just before drug administration and at 2, 4, 6 hours thereafter on each day of the 5 day study. Measurement of ocular surface hyperemia was performed immediately before each of the intraocular pressure readings. Ocular surface hyperemia grading was semi-quantitative and assessed according to a 5 point scoring scale used for clinical evaluations: 0=none; 0.5=trace; 1=mild; 2=moderate; and 3=severe.

[3] = system: Beagle dogs; assay: Ocular surface hyperemia grading in dogs; details: topical to one eye, dosing over a 5 day period; 5 point scale 0=none, 0.5=trace, 1=mild, 2=moderate, 3=severe
Protocol: as §1

In the case of `CC(C)(C)c1ccc(CN(Cc2cccc(OCC(=O)O)c2)S(=O)(=O)c2cccnc2)cc1` [(3-{[(4-tert-butyl-benzyl)-(pyridine-3-sulfonyl)-amino]-methyl}-phenoxy)-acetic acid], the “effect on the IOP of monkeys” value ([1]; 0.01% w/v solution) is reported as “lowers the elevated IOP over 24 hours”, the “effect on the IOP of monkeys” value ([1]; 0.03% w/v solution) is reported as “lowers the elevated IOP over 24 hours, almost to the level of the control normotensive eye” and the “effect on the IOP of monkeys” value ([1]; 0.1% w/v solution) is reported as “lowers the elevated IOP over 24 hours, almost to the level of the control normotensive eye”. The “effect on the IOP of dogs” value [2] was “effective for reducing IOP of the dogs” and the “ocular surface hyperemia of dogs” value [3] was “mild ocular surface hyperemia that diminishes over time”.
`CC(C)OC(=O)COc1cccc(CN(Cc2ccc(C(C)(C)C)cc2)S(=O)(=O)c2cccnc2)c1` [(3-{[(4-tert-butyl-benzyl)-(pyridine-3-sulfonyl)-amino]-methyl}-phenoxy)-acetic acid; isopropyl ester] was tested, and the “effect on the IOP of monkeys” value ([1]; 0.1% w/v solution) was “lowers the elevated IOP over 24 hours almost to the level of the control normotensive eye”, the “effect on the IOP of dogs” value [2] was “effective for reducing IOP of the dogs” and the “ocular surface hyperemia of dogs” value [3] was “minimal ocular surface hyperemia”.
